Laboratory results: patent US6498125B2, “Pyridine ketones useful as herbicides” (Syngenta Participations AG, priority 1998, dated 2002)

What was measured:
[1] = test system: Amaranthus; assay: Example B3: pre-emergence action, 250 g/ha; format: in vivo; settings: 250 g of AS/ha, sprayed immediately after sowing, 3 weeks, nine-level scale 1=complete damage, 9=no effect
Experimental: (§1) Monocotyledonous and dicotyledonous test plants are sown in pots in standard soil. Immediately after sowing, the test substances are sprayed on (500 l of spray liquorlha) as an aqueous suspension, prepared from a wettable powder WP10 corresponding to the desired dosage (250 g of a.i./ha).
(§2) The test plants are then grown under optimum conditions in a greenhouse. After a test period of 3 weeks, the test is evaluated with a nine -evel scale of ratings (1=complete damage, 9=no effect). Ratings of 1 to 4 (in particular 1 to 3) mean good to very good herbicidal action, 7-9 mean good tolerance.

[2] = test system: Stellaria; assay: Example B3: pre-emergence action, 250 g/ha; format: in vivo; settings: 250 g of AS/ha, sprayed immediately after sowing, 3 weeks, nine-level scale 1=complete damage, 9=no effect
Experimental: as §1, §2

[3] = test system: Sida; assay: Example B3: pre-emergence action, 250 g/ha; format: in vivo; settings: 250 g of AS/ha, sprayed immediately after sowing, 3 weeks, nine-level scale 1=complete damage, 9=no effect
Experimental: as §1, §2

[4] = test system: Kochia; assay: Example B3: pre-emergence action, 250 g/ha; format: in vivo; settings: 250 g of AS/ha, sprayed immediately after sowing, 3 weeks, nine-level scale 1=complete damage, 9=no effect
Experimental: as §1, §2

[5] = test system: Abutilon; assay: Example B3: pre-emergence action, 250 g/ha; format: in vivo; settings: 250 g of AS/ha, sprayed immediately after sowing, 3 weeks, nine-level scale 1=complete damage, 9=no effect
Experimental: as §1, §2

[6] = test system: Chenopodium; assay: Example B3: pre-emergence action, 250 g/ha; format: in vivo; settings: 250 g of AS/ha, sprayed immediately after sowing, 3 weeks, nine-level scale 1=complete damage, 9=no effect
Experimental: as §1, §2

[7] = test system: Amaranthus; assay: Example B4: post-emergence action, 250 g/ha; format: in vivo; settings: 250 g of AS/ha, sprayed in the 2-3-leaf stage, 0.2% X77, 3 weeks, nine-level scale 1=complete damage, 9=no effect
Experimental: (§3) Monocotyledonous and dicotyledonous test plants are sown in pots in standard soil. In the 2-3- leaf stage of the test plants, the test substances are sprayed on (500 l of spray liquor/ha) as an aqueous suspension, prepared from a wettable powder WP10 according to the desired dosage (250 g of a.i./ha). 0.2% of X77 is added as wetting agent to the spray liquor. The test plants are then grown under optimum conditions in a greenhouse.
(§4) After a test period of 3 weeks, the test is evaluated with a nine4evel scale of ratings (1=complete damage, 9=no effect). Ratings of 1 to 4 (in particular 1 to 3) mean good to very good herbicidal action, 7-9 mean good tolerance.

[8] = test system: Stellaria; assay: Example B4: post-emergence action, 250 g/ha; format: in vivo; settings: 250 g of AS/ha, sprayed in the 2-3-leaf stage, 0.2% X77, 3 weeks, nine-level scale 1=complete damage, 9=no effect
Experimental: as §3, §4

[9] = test system: Sida; assay: Example B4: post-emergence action, 250 g/ha; format: in vivo; settings: 250 g of AS/ha, sprayed in the 2-3-leaf stage, 0.2% X77, 3 weeks, nine-level scale 1=complete damage, 9=no effect
Experimental: as §3, §4

[10] = test system: Kochia; assay: Example B4: post-emergence action, 250 g/ha; format: in vivo; settings: 250 g of AS/ha, sprayed in the 2-3-leaf stage, 0.2% X77, 3 weeks, nine-level scale 1=complete damage, 9=no effect
Experimental: as §3, §4

[11] = test system: Abutilon; assay: Example B4: post-emergence action, 250 g/ha; format: in vivo; settings: 250 g of AS/ha, sprayed in the 2-3-leaf stage, 0.2% X77, 3 weeks, nine-level scale 1=complete damage, 9=no effect
Experimental: as §3, §4

[12] = test system: Chenopodium; assay: Example B4: post-emergence action, 250 g/ha; format: in vivo; settings: 250 g of AS/ha, sprayed in the 2-3-leaf stage, 0.2% X77, 3 weeks, nine-level scale 1=complete damage, 9=no effect
Experimental: as §3, §4

[13] = test system: Monocotyledonous and dicotyledonous test plants; assay: Example B2: post-emergence herbicidal action, 2 kg of AS/ha; format: in vivo; set-up: key: 1 = complete damage, 9 = no effect; settings: 4- to 6-leaf stage, about 18 days, scale 1-9; for post-emergence action rating, Avena: test plant Avena; for post-emergence action rating, Setaria: test plant Setaria; for post-emergence action rating, Sinapis: test plant Sinapis; for post-emergence action rating, Solanum: test plant Solanum; for post-emergence action rating, Stellaria: test plant Stellaria
Outline: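 Greenhouse-grown mono- and dicot plants sprayed post-emergence at 4- to 6-leaf stage with aqueous suspension (from 25% wettable powder) or emulsion (from 25% emulsion concentrate), 2 kg AS/ha in 500 l water/ha. Rated after about 18 days on nine-level scale (1 = complete damage, 9 = no effect).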

[14] = test system: Monocotyledonous and dicotyledonous test plants; assay: Example B1: pre-emergence herbicidal action, 2 kg of AS/ha; format: in vivo; settings: 3 weeks, scale 1-9
Outline: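 Pre-emergence test: test substances sprayed right after sowing in standard soil as aqueous suspension (25% wettable powder) or emulsion (25% emulsion concentrate) at 2 kg AS/ha in 500 l water/ha. Plants grown in greenhouse; rated after 3 weeks on a nine-level scale (1=complete damage, 9=no effect).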

Row | SMILES | Pre-emergence action: Amaranthus (rating) [1] | Pre-emergence action: Stellaria (rating) [2] | Pre-emergence action: Sida (rating) [3] | Pre-emergence action: Kochia (rating) [4] | Pre-emergence action: Abutilon (rating) [5] | Pre-emergence action: Chenopodium (rating) [6] | Post-emergence action: Amaranthus (rating) [7] | Post-emergence action: Stellaria (rating) [8] | Post-emergence action: Sida (rating) [9] | Post-emergence action: Kochia (rating) [10] | Post-emergence action: Abutilon (rating) [11] | Post-emergence action: Chenopodium (rating) [12] | melting point [°C] | further results
1 | CSc1ccc(C(=O)C2=C(O)C3CCC(C3)C2=O)c(C(F)(F)F)n1 (centres unmarked) [Compound 1.335] | 2 | 7 | 2 | 5 | 1 | 1 | 2 | 3 | 2 | 2 | 3 | 2 | – | –
2 | CS(=O)(=O)c1ccc(C(=O)C2=C(O)C3CCC(C3)C2=O)c(C(F)(F)F)n1 (centres unmarked) [Compound 1.339] | 1 | 1 | 2 | 7 | 2 | 1 | 2 | 3 | 4 | 1 | 2 | 3 | – | –
3 | CCSc1ccc(C(=O)C2=C(O)C3CCC(C3)C2=O)c(C(F)(F)F)n1 (centres unmarked) [Compound 1.341] | 9 | 1 | 4 | 9 | 3 | 1 | 2 | 4 | 5 | 4 | 5 | 3 | – | –
4 | CC[S+]([O-])c1ccc(C(=O)C2=C(O)C3CCC(C3)C2=O)c(C(F)(F)F)n1 (centres unmarked) [Compound 1.343] | 4 | 5 | 3 | 9 | 1 | 1 | 2 | 3 | 9 | 3 | 3 | 2 | – | –
5 | COc1ccc(C(=O)C2=C(O)C3CCC(C3)C2=O)c(C(F)(F)F)n1 (centres unmarked) [Compound 1.347] | 2 | 1 | 4 | 1 | 2 | 1 | 2 | 3 | 3 | 2 | 3 | 2 | – | –
6 | O=C(C1=C(O)C2CCC(C2)C1=O)c1ccc(OCC(F)(F)F)nc1C(F)(F)F (centres unmarked) [Compound 1.349] | 3 | 5 | 2 | 4 | 1 | 1 | 2 | 3 | 2 | 2 | 2 | 2 | – | –
7 | C#CCOc1ccc(C(=O)C2=C(O)C3CCC(C3)C2=O)c(C(F)(F)F)n1 (centres unmarked) [Compound 1.351] | – | – | – | – | – | – | 2 | 3 | 3 | 3 | 5 | 3 | – | –
8 | Cc1ccc(C(=O)C2=C(O)C3CCC(C3)C2=O)c(C(F)(F)F)n1 (centres unmarked) [Compound 1.361] | – | – | – | – | – | – | 2 | 3 | 2 | 2 | 2 | 2 | – | –
9 | Cc1nc(C(F)(F)F)ccc1C(=O)C1=C(Cl)C2CCC(C2)C1=O (centres unmarked) [Compound 1.398, 4-chloro-3-(2-methyl-6-trifluoromethyl-pyridine-3-carbonyl)bicyclo[3.2.1]oct-3-en-2-one] | – | – | – | – | – | – | – | – | – | – | – | – | 137 to 138 | post-emergence action rating, Avena [13]: 2; post-emergence action rating, Setaria [13]: 2; post-emergence action rating, Sinapis [13]: 1; post-emergence action rating, Solanum [13]: 2; post-emergence action rating, Stellaria [13]: 2; pre-emergence action rating, Avena ([14]; test plant Avena): 2; pre-emergence action rating, Cyperus ([14]; test plant Cyperus): 1; pre-emergence action rating, Setaria ([14]; test plant Setaria): 1; pre-emergence action rating, Sinapis ([14]; test plant Sinapis): 1; pre-emergence action rating, Solanum ([14]; test plant Solanum): 1; pre-emergence action rating, Stellaria ([14]; test plant Stellaria): 1
10 | CCC(=O)NC1CC(=O)C(C(=O)c2ccc(C(F)(F)F)nc2C)=C(O)C1 (centres unmarked) [Compound 6.006] | – | – | – | – | – | – | – | – | – | – | – | – | 176 to 177 | post-emergence action rating, Avena [13]: 2; post-emergence action rating, Setaria [13]: 5; post-emergence action rating, Sinapis [13]: 2; post-emergence action rating, Solanum [13]: 2; post-emergence action rating, Stellaria [13]: 2
11 | Cc1nc(C(F)(F)F)ccc1C(=O)c1c([S+](C)[O-])noc1C1CC1 (centres unmarked) [Compound 8.009, (5-cyclopropyl-3-methylsulfinylisoxazol-4-yl)-(2-methyl-6-trifluoromethylpyridin-3-yl)methanone] | – | – | – | – | – | – | – | – | – | – | – | – | 96 to 97 | –
12 | Cc1nc(C(F)(F)F)ccc1-c1onc([S+](C)[O-])c1C(=O)C1CC1 (centres unmarked) [Compound 9.009, cyclopropyl-[3-methanesulfinyl-5-(2-methyl-6-trifluoromethylpyridin-3yl)isoxazol4-yl]methanone] | – | – | – | – | – | – | – | – | – | – | – | – | 112 to 113 | –
